Data reported in patent US11174253B2, “Compound and pharmaceutical composition containing the same” (ALPHALA CO., LTD., priority 2017, dated 2021).

Test system: hepatocellular carcinoma cell line Hep3B
Test: Growth inhibition of Hep3B cells, 48 hr treatment, Hoechst 33342 nucleus count (GE InCell 2200)
Type: cell-based
Conditions: Homo sapiens, Table 1, ratio of number of tumor cells treated with 10 μM compound to non-treated cells
Protocol: The potency of selected compounds was defined by the growth inhibition ability to the hepatocellular carcinoma cell line Hep3B. The Hep3B cells were treated with selected compounds for 48 hr under 37° C., 5% CO2, and 95% relative humidity.
The number of treated cells was determined by GE InCell 2200 system, and treated cells were stained with Hoechst 33342 which can reveal the remained nucleus in culture plate. The proportion of survival cells then were calculated with the ratio of treated/non-treated cells. The growth inhibition/cytotoxic effect of selected compounds were evaluated by the following protocol of NCI-60 screening platform. The human tumor cell lines are plating on a 96 well plate in a fixed density 24 hr prior compound treatment. Compounds with multiple concentrations are then added into each well for further 48 hr incubation. Cell viability is assessed by MTS method and the potency of compound is represented by GI50 and LC50 calculated by MTS result.
Herein, the “Ratio in 10 μM (%)” in the following Tables 1-6 refers to the ratio of the number of tumor cells treated with 10 μM of selected compounds to the number of non-treated tumer cells.

Going from `CCCCOc1ccc(-c2nnc(NC(=O)Cc3ccc4nc(N)sc4c3)s2)cc1` [Compound 1-21, 2-(2-aminobenzo[d]thiazol-6-yl)-N-(5-(4-butoxyphenyl)-1,3,4-thiadiazol-2-yl)acetamide] to `Nc1nc2ccc(CC(=O)Nc3nnc(-c4ccc([N+](=O)[O-])cc4)s3)cc2s1` [Compound 1-8, 2-(2-aminobenzo[d]thiazol-6-yl)-N-(5-(4-nitrophenyl)-1,3,4-thiadiazol-2-yl)acetamide], the viability at 10 µM falls from 81% to 76%.

For `CCOc1cc(OCC)c(-c2nnc(NC(=O)Cc3ccc4nc(N)sc4c3)s2)c(OCC)c1` [Compound 1-24, 2-(2-aminobenzo[d]thiazol-6-yl)-N-(5-(2,4,6-triethoxyphenyl)-1,3,4-thiadiazol-2-yl)acetamide], the viability at 10 µM was 88%.

Same assay, conditions: Homo sapiens, Table 3, ratio of number of tumor cells treated with 10 μM compound to non-treated cells

`COc1cccc(-c2nc(NC(=O)Cc3ccc4nc(N)sc4c3)sc2Br)c1` [Compound 3-8, 2-(2-aminobenzo[d]thiazol-6-yl)-N-(5-bromo-4-(3-methoxyphenyl)thiazol-2-yl)acetamide] showed a viability at 10 µM of 84%.

Same assay, conditions: Homo sapiens, Table 4, ratio of number of tumor cells treated with 10 μM compound to non-treated cells

Compound `CCOc1ccc(-c2cnc(NC(=O)Cc3ccc4nc(N)sc4c3)[nH]2)c(OCCOC)c1` [Compound 4-3, 2-(2-aminobenzo[d]thiazol-6-yl)-N-(5-(4-ethoxy-2-(2-methoxyethoxy)phenyl)-1H-imidazol-2-yl)acetamide] has a viability at 10 µM of 40%.

Same assay, conditions: Homo sapiens, Table 5, ratio of number of tumor cells treated with 10 μM compound to non-treated cells

Compared with `CCCCOc1ccc(-c2nc(NC(=O)c3ccc([N+](=O)[O-])s3)sc2Oc2cc(C)cc(C)c2)cc1` [Compound 5-106, N-(4-(4-butoxyphenyl)-5-(3,5-dimethylphenoxy)thiazol-2-yl)-5-nitrothiophene-2-carboxamide], `CCCOc1ccc(-c2nc(NC(=O)c3ccc([N+](=O)[O-])s3)sc2Oc2cccnc2)cc1` [Compound 5-13, 5-nitro-N-(4-(4-propoxyphenyl)-5-(pyridin-3-yloxy)thiazol-2-yl)thiophene-2-carboxamide] is higher in viability at 10 µM: 29% for the first, 53% for the second.

Going from `CCCc1ccc(-c2nc(NC(=O)c3ccc([N+](=O)[O-])s3)sc2Oc2ccccc2F)cc1` [Compound 5-78, N-(5-(2-fluorophenoxy)-4-(4-propylphenyl)thiazol-2-yl)-5-nitrothiophene-2-carboxamide] to `CCCOc1ccc(-c2nc(NC(=O)c3ccc([N+](=O)[O-])s3)sc2Oc2ccccc2F)cc1` [Compound 5-58, N-(5-(2-fluorophenoxy)-4-(4-propoxyphenyl)thiazol-2-yl)-5-nitrothiophene-2-carboxamide], the viability at 10 µM rises from 33% to 43%.

Going from `CCCOc1ccc(-c2nc(NC(=O)c3ccc([N+](=O)[O-])s3)sc2Oc2cccc3cccnc23)cc1` [Compound 5-52, 5-nitro-N-(4-(4-propoxyphenyl)-5-(quinolin-8-yloxy)thiazol-2-yl)thiophene-2-carboxamide] to `CCCOc1ccc(-c2nc(NC(=O)c3ccc([N+](=O)[O-])s3)sc2Oc2ccc(C#N)cc2OC)cc1` [Compound 5-40, N-(5-(4-cyano-2-methoxyphenoxy)-4-(4-propoxyphenyl)thiazol-2-yl)-5-nitrothiophene-2-carboxamide], the viability at 10 µM rises from 41% to 46%.

Compared with `CN(C)CC#Cc1ccc(-c2nc(NC(=O)c3ccc([N+](=O)[O-])s3)sc2Oc2ccccc2)s1` [Compound 5-46, N-(4-(5-(3-(dimethylamino)prop-1-yn-1-yl)thiophen-2-yl)-5-phenoxythiazol-2-yl)-5-nitrothiophene-2-carboxamide], `O=C(Nc1nc(-c2ccc(OC(F)(F)F)cc2)c(Oc2ccccc2)s1)c1ccc([N+](=O)[O-])s1` [Compound 5-84, 5-nitro-N-(5-phenoxy-4-(4-(trifluoromethoxy)phenyl)thiazol-2-yl)thiophene-2-carboxamide] is lower in viability at 10 µM: 53% for the first, 34% for the second.

First: O=C(Nc1nc(-c2ccc(F)cc2)c(Oc2ccc(OC(F)(F)F)cc2)s1)c1ccc([N+](=O)[O-])s1 [Compound 5-33, N-(4-(4-fluorophenyl)-5-(4-(trifluoromethoxy)phenoxy)thiazol-2-yl)-5-nitrothiophene-2-carboxamide]
Second: CCOc1ccc(-c2nc(NC(=O)c3ccc([N+](=O)[O-])s3)sc2Oc2ccc(C(F)(F)F)cc2)cc1 [Compound 5-25, N-(4-(4-ethoxyphenyl)-5-(4-(trifluoromethyl)phenoxy)thiazol-2-yl)-5-nitrothiophene-2-carboxamide]
The viability at 10 µM of the first is higher: 40% for the first, 32% for the second.

Compound `CCCCc1ccc(Oc2sc(NC(=O)c3ccc([N+](=O)[O-])s3)nc2-c2ccc(F)cc2)cc1` [Compound 5-65, N-(5-(4-butylphenoxy)-4-(4-fluorophenyl)thiazol-2-yl)-5-nitrothiophene-2-carboxamide] has a viability at 10 µM of 43%.

Same assay, conditions: Homo sapiens, Table 6, ratio of number of tumor cells treated with 10 μM compound to non-treated cells

Compared with `CCOc1ccc(-c2nc(NC(=O)c3ccc([N+](=O)[O-])s3)sc2-c2ccc(C(F)(F)F)cc2)cc1` [Compound 6-19, N-(4-(4-ethoxyphenyl)-5-(4-(trifluoromethyl)phenyl)thiazol-2-yl)-5-nitrothiophene-2-carboxamide], `CCOc1ccc(-c2nc(NC(=O)c3ccc([N+](=O)[O-])s3)sc2-c2ccc(F)cc2)cc1` [Compound 6-15, N-(4-(4-ethoxyphenyl)-5-(4-fluorophenyl)thiazol-2-yl)-5-nitrothiophene-2-carboxamide] is higher in viability at 10 µM: 26% for the first, 64% for the second.

Compared with `CCOc1ccc(-c2nc(NC(=O)c3ccc([N+](=O)[O-])s3)sc2C(=O)Nc2cc(F)cc(F)c2)cc1` [Compound 6-27, N-(3,5-difluorophenyl)-4-(4-ethoxyphenyl)-2-(5-nitrothiophene-2-carboxamido)thiazole-5-carboxamide], `CCOc1ccc(-c2nc(NC(=O)c3ccc([N+](=O)[O-])s3)sc2Cc2cccc(F)c2)cc1` [Compound 6-36, N-(4-(4-ethoxyphenyl)-5-(3-fluorobenzyl)thiazol-2-yl)-5-nitrothiophene-2-carboxamide] is higher in viability at 10 µM: 36% for the first, 41% for the second.

First: CCCOc1ccc(-c2nc(NC(=O)c3ccc([N+](=O)[O-])s3)sc2C(=O)N2CCOCC2)cc1 [Compound 6-29, N-(5-(morpholine-4-carbonyl)-4-(4-propoxyphenyl)thiazol-2-yl)-5-nitrothiophene-2-carboxamide]
Second: CN1CCN(C(=O)c2sc(NC(=O)c3ccc([N+](=O)[O-])s3)nc2-c2ccc(C(C)(C)C)cc2)CC1 [Compound 6-43, N-(4-(4-(tert-butyl)phenyl)-5-(4-methylpiperazine-1-carbonyl)thiazol-2-yl)-5-nitrothiophene-2-carboxamide]
The viability at 10 µM of the first is higher: 58% for the first, 38% for the second.

First: CC(C)(C)c1ccc(-c2nc(NC(=O)c3ccc([N+](=O)[O-])s3)sc2-c2ccccc2Cl)cc1 [Compound 6-55, N-(4-(4-(tert-butyl)phenyl)-5-(2-chlorophenyl)thiazol-2-yl)-5-nitrothiophene-2-carboxamide]
Second: CC(C)(C)c1ccc(-c2nc(NC(=O)c3ccc([N+](=O)[O-])s3)sc2-c2cccc(Cl)c2)cc1 [Compound 6-56, N-(4-(4-(tert-butyl)phenyl)-5-(3-chlorophenyl)thiazol-2-yl)-5-nitrothiophene-2-carboxamide]
The viability at 10 µM of the first is higher: 30% for the first, 28% for the second.

Compound `CC(C)(C)c1ccc(-c2nc(NC(=O)c3ccc([N+](=O)[O-])s3)sc2Br)cc1` [Compound 6-60, N-(5-bromo-4-(4-(tert-butyl)phenyl)thiazol-2-yl)-5-nitrothiophene-2-carboxamide] has a viability at 10 µM of 45%.
